Common to all, as to test: DTP human tumour cell line panel, 48 h
Assay [1] relates to SR.
In assay [2] the test system is DU-145.
Assay [3] concerns SF-295.
Assay [4] concerns SNB-75.
Assay [5] relates to MCF7.
Assay [6] relates to SF-539.
Assay [7] concerns KM12.
Assay [8] has as its system M14.
Assay [9] has as its system RPMI-8226.
Assay [10] relates to COLO 205.
Assay [11] has as its system CAKI-1.
The subject of assay [12] is OVCAR-5.
In assay [13] the test system is CCRF-CEM.
The test system of assay [14] is UACC-257.
Assay [15] relates to SNB-19.
Assay [16] relates to OVCAR-4.
Assay [17] concerns MOLT-4.
Assay [18] deals with SK-MEL-28.
Assay [19] deals with K562.

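All cell lines were grown in 96-well plates and treated with compound for 48 hours. Abbreviation: GI50, concentration required for 50% inhibition of growth.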 The source made the active and inactive calls. Cut-off read from the data, not from the text of the source: active = GI50 up to about 1.1 µM and inactive = higher.

In the case of `CCOC(=O)C1C(c2ccc(OC)cc2)c2c(n[nH]c2O)CC1(C)O` (configuration not stated), the GI50 (usually the concentration at which growth is held to half of that of the control) in assay [1] was > 100 µM (inactive); in assay [2], > 100 µM (inactive); in [3], 45.1 µM (inactive); in assay [4], > 100 µM (inactive); in assay [5], > 100 µM (inactive); in [6], > 100 µM (inactive). The GI50 in assay [7], in [8], in assay [9], in assay [10], in assay [11] and in assay [12] was > 100 µM (inactive) in each case. Further, the GI50 in assay [13], in assay [14], in assay [15], in assay [16], in [17] and in [18] was > 100 µM (inactive) each time.

`Cc1ccc(/C=C2\CCC/C(=C\c3ccc(O)c(CN4CCCCC4)c3)C2=O)cc1`: the GI50 in assay [1] is 3.71 µM (inactive); in assay [2] it was 4.91 µM (inactive); in assay [19], 3.56 µM (inactive); in assay [3], 10.7 µM (inactive); in assay [4], 6.49 µM (inactive); in assay [5], 4.44 µM (inactive). Moreover, the GI50 in assay [6] is 9.42 µM (inactive); in assay [7] it was 3.01 µM (inactive); in assay [8], 3.73 µM (inactive); in assay [9], 5.08 µM (inactive); in assay [10], 5.2 µM (inactive); in assay [11] it was 14.6 µM (inactive). Also, the GI50 in [12] was 17.4 µM (inactive); in [14], 5.09 µM (inactive); in assay [15], 16.2 µM (inactive); in assay [16] it was 11.1 µM (inactive); in [17], 3.6 µM (inactive); in [18] it was 15.7 µM (inactive).

Consider `[O-][N+]1(CC[N+]2([O-])CCCCC2)CCCCC1`, for which the GI50 in [1], in assay [2], in [19], in [3], in [4] and in assay [5] was > 100 µM (inactive) throughout. Moreover, the GI50 in assay [6], in assay [7], in assay [8], in assay [9], in assay [10] and in [11] was > 100 µM (inactive) each time. For the same molecule, the GI50 in assay [12], in [13], in [15], in assay [16], in assay [17] and in assay [18] was > 100 µM (inactive) throughout.

On to `CC(=O)OCC(C)(COC(C)=O)N1C(=O)C2C3c4ccccc4C(c4ccccc43)C2C1=O` (configuration not stated), for which the GI50 in assay [1] was > 100 µM (inactive); in assay [2], > 100 µM (inactive); in assay [19], > 100 µM (inactive); in [3], > 100 µM (inactive); in [4], 49.7 µM (inactive); in assay [5] it was > 100 µM (inactive). Besides, the GI50 in assay [6], in assay [7], in assay [8], in assay [9], in [10] and in [11] was > 100 µM (inactive) each time. The GI50 in [12], in assay [13], in assay [14], in assay [15] and in assay [17] was > 100 µM (inactive) in each case.

As to `CC[C@H]1C=CCC[C@@]2(C[C@@H]3CC[C@@H]4[C@H](C(=O)OCCCCCCCCCCCCCCCC(=O)N(CCCNC(C)=O)C[C@H](CCNC(C)=O)OC(C)=O)[C@]5(CCC[C@@H](C)O5)NC(=[N+]34)N2)O1`, the concentration for 50% growth inhibition (GI50) in assay [1] was 0.0394 µM (active); in [2], 0.0918 µM (active); in assay [19] it was 0.168 µM (active); in assay [3] it was 0.391 µM (active); in assay [5] it was 0.0861 µM (active); in assay [6] it was 0.26 µM (active). In addition, the GI50 in assay [7] was 0.0847 µM (active); in assay [8], 0.129 µM (active); in [9] it was 0.0312 µM (active); in assay [10], 0.0395 µM (active); in [11], 0.561 µM (active); in assay [12] it was 0.0557 µM (active). Also, the GI50 was 0.00184 µM (active) in [13]; 0.0281 µM (active) in assay [14]; 0.533 µM (active) in assay [15]; 0.183 µM (active) in assay [16]; 0.0328 µM (active) in assay [17]; 0.757 µM (active) in [18].

For the molecule `S=C(Nc1cc(Cl)c(Cl)cc1Cl)SCc1ccccc1`, the GI50 in assay [1] is 0.0129 µM (active); in assay [2], 39.4 µM (inactive); in assay [19], 18.5 µM (inactive); in [3], 19.4 µM (inactive); in assay [4], 39.3 µM (inactive); in assay [5], 38.5 µM (inactive). Also, the GI50 in assay [6] was 23.1 µM (inactive); in assay [7], 19.8 µM (inactive); in assay [8], 34.9 µM (inactive); in assay [9], 21 µM (inactive); in [10], 34.9 µM (inactive); in assay [11], 22.6 µM (inactive). Further, the GI50 in assay [12] was 22.8 µM (inactive); in assay [14] it was 19 µM (inactive); in assay [15] it was 28.6 µM (inactive); in assay [16] it was 22.2 µM (inactive); in [17], 22.8 µM (inactive); in [18], 28.6 µM (inactive).

Take `COc1ccc(C2=Nn3c(nc4sc(C)c(C)c4c3=O)SC2)cc1`: the GI50 in assay [1], in [2], in assay [19], in [3], in assay [4] and in [5] was > 100 µM (inactive) each time. For the same molecule, the GI50 in [6], in assay [7], in [9], in [10], in assay [11] and in assay [12] was > 100 µM (inactive) in each case. Besides, the GI50 in [13], in [14], in assay [16], in [17] and in assay [18] was > 100 µM (inactive) in each case.

On to `CCCCC(C#N)(OP1(=O)OC(c2ccccc2)C(C)N1C)c1ccccc1` (configuration not stated), for which the GI50 in [1] was 19.9 µM (inactive); in assay [2] it was 19.7 µM (inactive); in [19], 19 µM (inactive); in assay [3], 17.5 µM (inactive); in assay [4], 18.2 µM (inactive); in [5], 19.9 µM (inactive). Also, the GI50 was 15.5 µM (inactive) in assay [6]; 19.6 µM (inactive) in assay [7]; 20.7 µM (inactive) in assay [8]; 20.8 µM (inactive) in assay [9]; 17.8 µM (inactive) in assay [10]; 18.7 µM (inactive) in assay [11]. The GI50 is 17.1 µM (inactive) in assay [12]; 20.3 µM (inactive) in assay [13]; 18.3 µM (inactive) in assay [14]; 19.2 µM (inactive) in assay [15]; 15.7 µM (inactive) in assay [17]; 16.3 µM (inactive) in assay [18].

The record behind these values is ChEMBL document CHEMBL1201862, “PubChem BioAssay data set” (2004).
